Laboratory results published in patent publication US20240390383A1, “DIOXAZINES AND THEIR USE IN TREATMENT OF GBA-RELATED DISEASES” (ZEVRA DENMARK A/S, priority 2021, published 2024).

Target: T1, GCase (GBA) in human fibroblast cell line GM10915 harboring the L444P GBA mutation (Homo sapiens, UniProt P04062, L483P)
T1 construct: Human fibroblast cell line GM10915 harboring the L444P GBA mutation; host or cells: GM10915 human fibroblasts
T1 sequence (P04062 40-536 L483P): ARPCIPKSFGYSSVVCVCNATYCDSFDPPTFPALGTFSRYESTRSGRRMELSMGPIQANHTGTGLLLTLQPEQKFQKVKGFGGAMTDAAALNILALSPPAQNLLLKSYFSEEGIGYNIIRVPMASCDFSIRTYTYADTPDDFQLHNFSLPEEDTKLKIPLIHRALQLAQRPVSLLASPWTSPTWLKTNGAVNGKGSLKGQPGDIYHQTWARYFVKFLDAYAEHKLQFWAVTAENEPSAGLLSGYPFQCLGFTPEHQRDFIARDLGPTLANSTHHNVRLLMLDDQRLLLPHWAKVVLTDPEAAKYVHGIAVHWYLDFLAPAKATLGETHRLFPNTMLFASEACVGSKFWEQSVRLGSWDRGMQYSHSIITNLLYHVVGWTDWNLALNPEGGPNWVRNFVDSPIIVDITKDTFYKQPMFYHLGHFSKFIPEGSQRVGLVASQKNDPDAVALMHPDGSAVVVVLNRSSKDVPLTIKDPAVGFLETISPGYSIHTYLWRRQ
Experiment: GCase activity assay (4-MUG substrate, normalised to crystal violet staining) in L444P GBA fibroblasts
Assay type: cell-based
Details: 5 days exposure; for GBA EC1.5: concentration giving 150% GCase activity (1.5-fold induction), 8-point dose range; for Emax: maximum percent GCase activity relative to untreated cells in the dose range tested
In short: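 Patient fibroblasts GM10915 (L444P GBA) exposed to compounds for five days over an 8-point range, with fresh dosing every 2–3 days. Intact-cell GCase measured with 2.5 mM 4-MUG at pH 4.0 for 23 h at 37 °C (ex/em 365/445 nm), normalised to crystal violet, as % of PBS basal; Emax is the maximum reached.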

Compound: CN1C[C@@H]2CN(CC3CON=C(C4(C)CCNCC4)O3)C[C@@H]2C1 (stereo partly shown) [compound 592]
- GBA EC1.5: 50 µM
- Emax: 110%

Compound: N[C@@H]1CN[C@H](C2=NOCC(CN3CCCCC3)O2)C1 (stereo partly shown) [compound 596]
- GBA EC1.5: 50 µM
- Emax: 105%

Compound: N[C@H]1CN[C@H](C2=NOCC(CN3CCCCC3)O2)C1 (stereo partly shown) [compound 597]
- GBA EC1.5: 50 µM
- Emax: 106%

Compound: Fc1cccc(C2(C3=NOCC(CN4CCCCC4)O3)CCCNC2)n1 (stereo not shown) [compound 598]
- GBA EC1.5: 1 µM
- Emax: 179%

Compound: CN1CC(C2=NOCC(CN3CCCCC3)N2)CC1=O (stereo not shown) [compound 601]
- GBA EC1.5: 50 µM
- Emax: 111%

Compound: CN1CCC2CN(CC3CON=C(C4(C)CCNCC4)O3)CC2C1 (stereo not shown) [compound 602]
- GBA EC1.5: 50 µM
- Emax: 121%

Compound: CN1[C@@H]2CC[C@H]1CN(CC1CON=C(C3(C)CCNCC3)O1)C2 (stereo partly shown) [compound 603]
- GBA EC1.5: 50 µM
- Emax: 102%

Compound: CN1CCO[C@@H]2CN(CC3CON=C(C4(C)CCNCC4)O3)C[C@@H]21 (stereo partly shown) [compound 604]
- GBA EC1.5: 50 µM
- Emax: 119%

Compound: CN(C)CC1CON=C(C2CCN(C)C2)O1 (stereo not shown) [compound 605]
- GBA EC1.5: 45 µM
- Emax: 148%

Compound: Cn1ccnc1CC1(C2=NOCC(CN3CCCCC3)O2)CCNCC1 (stereo not shown) [compound 607]
- GBA EC1.5: 50 µM
- Emax: 123%

Compound: OC1CCC(C2=NOCC(CN3CCCCC3)O2)CC1 (stereo not shown) [compound 609]
- GBA EC1.5: 50 µM
- Emax: 119%

Compound: CN(C)CC1CON=C(C2CCNC2)O1 (stereo not shown) [compound 615]
- GBA EC1.5: 50 µM
- Emax: 108%

Compound: O=C1CCC(C2=NOCC(CN3CCCCC3)O2)CN1 (stereo not shown) [compound 617]
- GBA EC1.5: 50 µM
- Emax: 113%

Compound: CN1CC2CC[C@H](C1)N2CC1CON=C(C2(C)CCNCC2)O1 (stereo partly shown) [compound 627]
- GBA EC1.5: 48 µM
- Emax: 133%

Compound: CN1CC2(C)CN(CC3CON=C(C4(C)CCNCC4)O3)CC2(C)C1 (stereo not shown) [compound 628]
- GBA EC1.5: 43 µM
- Emax: 136%

Compound: CN1CCC(C2=NOCC(CN3CCCCC3)O2)C1 (stereo not shown) [compound 629]
- GBA EC1.5: 11 µM
- Emax: 247%

Compound: c1csc(N2CCC(C3=NOCC(CN4CCCCC4)O3)CC2)n1 (stereo not shown) [compound 635]
- GBA EC1.5: 50 µM
- Emax: 135%

Compound: FC1(F)CNCCC1C1=NOCC(CN2CCCCC2)O1 (stereo not shown) [compound 636]
- GBA EC1.5: 50 µM
- Emax: 126%

Compound: O=C1NCCC1C1=NOCC(CN2CCCCC2)O1 (stereo not shown) [compound 637]
- GBA EC1.5: 50 µM
- Emax: 111%

Compound: NC(=O)N1CCC(C2=NOCC(CN3CCCCC3)O2)CC1 (stereo not shown) [compound 639]
- GBA EC1.5: 50 µM
- Emax: 112%

Compound: COc1ncc(CC2(C3=NOC(C)C(CN4CCCCC4)O3)CCN(C)C2)cc1Cl (stereo not shown) [compound 646]
- GBA EC1.5: 50 µM
- Emax: 112%

Compound: COc1ncc(CC2(C3=NOC(C)C(CN4CCCCC4)O3)CCNC2)cc1Cl (stereo not shown) [compound 647]
- GBA EC1.5: 50 µM
- Emax: 103%

Compound: O=C1CC(C2=NOCC(CN3CCCCC3)O2)CCN1 (stereo not shown) [compound 649]
- GBA EC1.5: 50 µM
- Emax: 103%

Compound: OC1(C2=NOCC(CN3CCCCC3)O2)CCNCC1 (stereo not shown) [compound 650]
- GBA EC1.5: 50 µM
- Emax: 141%

Compound: c1cc2n(n1)CCC(C1=NOCC(CN3CCCCC3)O1)C2 (stereo not shown) [compound 656]
- GBA EC1.5: 50 µM
- Emax: 123%

Compound: c1cnc(N2CCC(C3=NOCC(CN4CCCCC4)O3)CC2)nc1 (stereo not shown) [compound 658]
- GBA EC1.5: 50 µM
- Emax: 116%

Compound: c1ccc(N2CCCC(C3=NOCC(CN4CCCCC4)O3)C2)nc1 (stereo not shown) [compound 661]
- GBA EC1.5: 50 µM
- Emax: 140%

Compound: c1nc2n(n1)CCC(C1=NOCC(CN3CCCCC3)O1)C2 (stereo not shown) [compound 662]
- GBA EC1.5: 50 µM
- Emax: 138%

Compound: CN1C(=O)CC(C2=NOCC(CN3CCCCC3)O2)c2ccccc21 (stereo not shown) [compound 664]
- GBA EC1.5: 50 µM
- Emax: 137%

Compound: O=c1[nH]nc2n1CCC(C1=NOCC(CN3CCCCC3)O1)C2 (stereo not shown) [compound 668]
- GBA EC1.5: 50 µM
- Emax: 116%

Compound: CN(C)C(=O)N1CCCC(C2=NOCC(CN3CCCCC3)O2)C1 (stereo not shown) [compound 670]
- GBA EC1.5: 50 µM
- Emax: 126%

Compound: CC(=O)NC1CCNCC1C1=NOCC(CN2CCCCC2)O1 (stereo not shown) [compound 671]
- GBA EC1.5: 50 µM
- Emax: 146%

Compound: c1ccc(N2CCC(C3=NOCC(CN4CCCCC4)O3)C2)nc1 (stereo not shown) [compound 672]
- GBA EC1.5: 50 µM
- Emax: 127%

Compound: CC(=O)N1CCC(C2=NOCC(CN3CCCCC3)O2)C1 (stereo not shown) [compound 674]
- GBA EC1.5: 50 µM
- Emax: 123%

Compound: CN(C)C(=O)N1CCC(C2=NOCC(CN3CCCCC3)O2)C1 (stereo not shown) [compound 675]
- GBA EC1.5: 50 µM
- Emax: 102%

Compound: CN1CCC(C2=NOCC(CN3CCCCC3)O2)CC1=O (stereo not shown) [compound 676]
- GBA EC1.5: 50 µM
- Emax: 120%

Compound: c1ccc(N2CCC(C3=NOCC(CN4CCCCC4)O3)CC2)nc1 (stereo not shown) [compound 678]
- GBA EC1.5: 50 µM
- Emax: 106%

Compound: Nc1ccc(N2CCC(C3=NOCC(CN4CCCCC4)O3)CC2)nc1 (stereo not shown) [compound 679]
- GBA EC1.5: 50 µM
- Emax: 107%

Compound: CC(=O)N1CCC(C2=NOCC(CN3CCCCC3)O2)CC1 (stereo not shown) [compound 683]
- GBA EC1.5: 50 µM
- Emax: 113%

Compound: CN(C)C(=O)N1CCC(C2=NOCC(CN3CCCCC3)O2)CC1 (stereo not shown) [compound 684]
- GBA EC1.5: 50 µM
- Emax: 109%

Compound: CN1CCN(CC2CON=C(C3(Cc4cccnc4)CCNCC3)O2)CC1 (stereo not shown) [compound 686]
- GBA EC1.5: 50 µM
- Emax: 97%

Compound: Nc1ccc(N2CCCC(C3=NOCC(CN4CCCCC4)O3)C2)nc1 (stereo not shown) [compound 687]
- GBA EC1.5: 50 µM
- Emax: 110%

Compound: COC1CC(C2=NOCC(CN3CCCCC3)O2)CN(C)C1 (stereo not shown) [compound 689]
- GBA EC1.5: 50 µM
- Emax: 137%

Compound: CC(=O)N1CCCC1C1=NOCC(CN2CCCCC2)O1 (stereo not shown) [compound 692]
- GBA EC1.5: 50 µM
- Emax: 107%

Compound: c1cnc(N2CCC(C3=NOCC(CN4CCCCC4)O3)C2)nc1 (stereo not shown) [compound 693]
- GBA EC1.5: 50 µM
- Emax: 112%

Compound: CN(C)C(=O)N1CCCC1C1=NOCC(CN2CCCCC2)O1 (stereo not shown) [compound 694]
- GBA EC1.5: 50 µM
- Emax: 115%

Compound: CN1CCCC1C1=NOCC(CN2CCCCC2)O1 (stereo not shown) [compound 695]
- GBA EC1.5: 50 µM
- Emax: 111%

Compound: NC(=O)N1CCC(C2=NOCC(CN3CCCCC3)O2)C1 (stereo not shown) [compound 697]
- GBA EC1.5: 50 µM
- Emax: 107%

Compound: Nc1ccc(N2CCC(C3=NOCC(CN4CCCCC4)O3)C2)nc1 (stereo not shown) [compound 698]
- GBA EC1.5: 50 µM
- Emax: 137%

Compound: COc1cc(C)c(CC2(C3=NOCC(CN4CCCCC4)O3)CCNCC2)cn1 (stereo not shown) [compound 702]
- GBA EC1.5: 50 µM
- Emax: 110%

Compound: COc1ccc(CC2(C3=NOCC(CN4CCCCC4)O3)CCNCC2)c(C)n1 (stereo not shown) [compound 703]
- GBA EC1.5: 50 µM
- Emax: 113%

Compound: O[C@@H]1CC[C@@H](C2=NOCC(CN3CCCCC3)O2)C1 (stereo partly shown) [compound 704]
- GBA EC1.5: 50 µM
- Emax: 117%

Compound: NC(=O)N1CCCC(C2=NOCC(CN3CCCCC3)O2)C1 (stereo not shown) [compound 717]
- GBA EC1.5: 50 µM
- Emax: 111%
